From patent US20240415819A1, “MACROCYCLIC COMPOUNDS AS PROTEASOME SUBUNIT BETA TYPE-5 INHIBITORS” (Lead Discovery Center GmbH, priority 2021, published 2024) come the findings set out here.

Test [1] deals with B-cells isolated from PBMC's. Briefly: Chymotrypsin-like ProteasomeGlo assay in B-cells isolated from PBMCs. The format is cell-based, human. To be noted: Homo sapiens; B-cells isolated from PBMC's; read-out: Pglo B-Cell. The essentials:
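Human B-cells were negatively isolated from buffy-coat PBMCs by density gradient, RBC lysis and Miltenyi magnetic separation. Cells were plated and compounds added by acoustic transfer after 1:100 dilution, with DMSO controls and medium-only wells. Chymotrypsin-like proteasome activity was read by luminescent ProteasomeGlo to derive IC50.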

Test [2] deals with B cell. Nature of the test: B cell diff. (Table 4, method not given). The format is cell-based. The note with it: B-cell.
In test [3] the test system is PBMC. Nature of the test: PBMC IL 17 stim. (Table 4, method not given). The test is classed as cell-based.
Test [4] has as its system Karpas cells. Briefly: Glo assay of Karpas cells (Table 3; ProteasomeGlo plating scheme). The test is classed as cell-based. To be noted: read-out: Pglo Karpas. In a few lines: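 Compound treatment lasts 105 minutes at 37° C. under 5% CO2. Suc-LLVY-Glo substrate premixed with detection reagent (60 min at room temperature) is then added directly to the cells, and luminescence after 10-15 min in the dark gives the IC50 in nM.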

With `Cc1ccc2cc1CNC(=O)[C@H](CCc1ccccc1)NC(=O)CCC(=O)N1CCCC(CCO2)C1` (stereo partly drawn) [Compound 13, (9S)-5^4-methyl-9-phenethyl-4-oxa-7,10-diaza-1(3,1)-piperidina-5(1,3)-benzenacyclotetradecaphane-8,11,14-trione], the IC50 is less than 0.1 µM in test [1] and 0.1 to 0.5 µM in test [2].
For the molecule `Cc1ccc2cc1CNC(=O)[C@H](CCc1ccccc1)NC(=O)CCCCC(=O)N1CCCC(CCO2)C1` (stereo partly drawn) [Compound 16, (9S)-5^4-methyl-9-phenethyl-4-oxa-7,10-diaza-1(3,1)-piperidina-5(1,3)-benzenacyclohexadecaphane-8,11,16-trione], the IC50 in test [1], in test [3] and in test [2] was less than 0.1 µM each time.
Turning to `Cc1ccc2cc1CNC(=O)[C@H](CCc1ccccc1)NC(=O)[C@@H](Nc1ccccn1)CC(=O)N1CCCC(CCO2)C1` (stereo partly drawn) [Compound 36, (9S,12S)-5^4-methyl-9-phenethyl-12-(pyridin-2-ylamino)-4-oxa-7,10-diaza-1(3,1)-piperidina-5(1,3)-benzenacyclotetradecaphane-8,11,14-trione], the IC50 in test [1] was 0.1 to 0.5 µM; in test [2], less than 0.1 µM.
The like results for `Cc1ccc2cc1CNC(=O)[C@H](CCc1ccccc1)NC(=O)[C@@H](NS(C)(=O)=O)CC(=O)N1CCCC(CCO2)C1` (stereo partly drawn) [Compound 37, N-((9S,12S)-5^4-methyl-8,11,14-trioxo-9-phenethyl-4-oxa-7,10-diaza-1(3,1)-piperidina-5(1,3)-benzenacyclotetradecaphane-12-yl)methanesulfonamide] were, in that order, less than 0.1 µM and less than 0.1 µM.
As for `Cc1ccc2cc1CNC(=O)[C@H](CCc1ccccc1)NC(=O)[C@@H](NC(=O)c1ccncc1)CC(=O)N1CCCC(CCO2)C1` (stereo partly drawn) [Compound 42, N-((9S,12S)-5^4-methyl-8,11,14-trioxo-9-phenethyl-4-oxa-7,10-diaza-1(3,1)-piperidina-5(1,3)-benzenacyclotetradecaphane-12-yl)isonicotinamide], the IC50 in test [1] and in test [2] was less than 0.1 µM throughout.
On to `Cc1ccc2cc1CNC(=O)[C@H](CCc1ccccc1)NC(=O)[C@@H](N1C(=O)CCC1=O)CC(=O)N1CCCC(CCO2)C1` (stereo partly drawn) [Compound 43, (9S,12S)-12-(2,5-dioxopyrrolidin-1-yl)-5^4-methyl-9-phenethyl-4-oxa-7,10-diaza-1(3,1)-piperidina-5(1,3)-benzenacyclotetradecaphane-8,11,14-trione], for which the IC50 in test [1] and in test [2] was less than 0.1 µM in each case.
`Cc1ccc2cc1CNC(=O)[C@H](CCc1ccccc1)NC(=O)[C@@H](Nc1nc3ccccc3[nH]1)CC(=O)N1CCCC(CCO2)C1` (stereo partly drawn) [Compound 45, (9S,12S)-12-((1H-benzo[d]imidazol-2-yl)amino)-5^4-methyl-9-phenethyl-4-oxa-7,10-diaza-1(3,1)-piperidina-5(1,3)-benzenacyclotetradecaphane-8,11,14-trione]: the IC50 is 0.1 to 0.5 µM in test [1] and less than 0.1 µM in test [2].
Take `COc1ccc(CC(=O)N[C@H]2CC(=O)N3CCCC(CCOc4ccc(C)c(c4)CNC(=O)[C@H](CCc4ccccc4)NC2=O)C3)cc1OC` (stereo partly drawn) [Compound 63, 2-(3,4-dimethoxyphenyl)-N-((9S,12S)-5^4-methyl-8,11,14-trioxo-9-phenethyl-4-oxa-7,10-diaza-1(3,1)-piperidina-5(1,3)-benzenacyclotetradecaphane-12-yl)acetamide]: the IC50 in test [1], in test [3] and in test [4] was less than 0.1 µM in each case.
For the molecule `Cc1ccc2cc1CNC(=O)[C@H](Cc1ccccc1)NC(=O)CCC(=O)N1CCCC(CCO2)C1` (stereo partly drawn) [Compound 79, (9S)-9-benzyl-5^4-methyl-4-oxa-7,10-diaza-1(3,1)-piperidina-5(1,3)-benzenacyclotetradecaphane-8,11,14-trione], the IC50 in test [1] and in test [4] was 0.5 to 1 µM each time.
For the molecule `Cc1ccc2cc1CNC(=O)[C@H](CCc1ccccc1)NC(=O)[C@@H](NC(=O)[C@H](C)c1ccccc1)CC(=O)N1CCCC(CCO2)C1` (stereo partly drawn) [Compound 80, (2R)-N-((9S,12S)-5^4-methyl-8,11,14-trioxo-9-phenethyl-4-oxa-7,10-diaza-1(3,1)-piperidina-5(1,3)-benzenacyclotetradecaphane-12-yl)-2-phenylpropanamide], the IC50 in test [1] and in test [4] was less than 0.1 µM throughout.
Take `Cc1ccc2cc1CNC(=O)[C@H](CCc1ccccc1)NC(=O)[C@@H](NC(=O)[C@@H](C)c1ccccc1)CC(=O)N1CCCC(CCO2)C1` (stereo partly drawn) [Compound 81, (2S)-N-((9S,12S)-5^4-methyl-8,11,14-trioxo-9-phenethyl-4-oxa-7,10-diaza-1(3,1)-piperidina-5(1,3)-benzenacyclotetradecaphane-12-yl)-2-phenylpropanamide]: the IC50 in test [1] and in test [4] was less than 0.1 µM each time.
Turning to `Cc1ccc2cc1CNC(=O)[C@H](CCc1ccccc1)NC(=O)[C@@H](NC(=O)C1CCCc3ccccc31)CC(=O)N1CCCC(CCO2)C1` (stereo partly drawn) [Compound 82, N-((9S,12S)-5^4-methyl-8,11,14-trioxo-9-phenethyl-4-oxa-7,10-diaza-1(3,1)-piperidina-5(1,3)-benzenacyclotetradecaphane-12-yl)-1,2,3,4-tetrahydronaphthalene-1-carboxamide], the IC50 in test [1] and in test [4] was less than 0.1 µM in each case.
As to `COc1ccc(CC(=O)N[C@H]2CC(=O)N3CCCC(CCOc4ccc(C)c(c4)CNC(=O)[C@H](CCc4ccccc4)NC2=O)C3)cc1` (stereo partly drawn) [Compound 83, 2-(4-methoxyphenyl)-N-((9S,12S)-5^4-methyl-8,11,14-trioxo-9-phenethyl-4-oxa-7,10-diaza-1(3,1)-piperidina-5(1,3)-benzenacyclotetradecaphane-12-yl)acetamide], the IC50 in test [1] and in test [4] was less than 0.1 µM in each case.
Take `Cc1ccc2cc1CNC(=O)[C@H](CCc1ccccc1)NC(=O)[C@@H](NC(=O)CN1CCOCC1)CC(=O)N1CCCC(CCO2)C1` (stereo partly drawn) [Compound 88, N-((9S,12S)-5^4-methyl-8,11,14-trioxo-9-phenethyl-4-oxa-7,10-diaza-1(3,1)-piperidina-5(1,3)-benzenacyclotetradecaphane-12-yl)-2-morpholinoacetamide]: the IC50 in test [1] and in test [4] was less than 0.1 µM throughout.
